Numbers after ± are expanded uncertainties.
Assays:
[1] = 101 kPa, Liquid; for speed of sound: Linear variable-path acoustic interferometer; for mass density: Vibrating tube method
[2] = xn = mol fraction of the nth substance listed; conditions: 101 kPa, Liquid, x2 = 0; for speed of sound: Linear variable-path acoustic interferometer; for mass density: Vibrating tube method

| Compound | speed of sound ([1]; 293.15 K) [m/s] | mass density ([1]; 293.15 K) [kg/m3] | speed of sound ([1]; 298.15 K) [m/s] | mass density ([1]; 298.15 K) [kg/m3] | speed of sound ([1]; 303.15 K) [m/s] | mass density ([1]; 303.15 K) [kg/m3] | speed of sound ([1]; 308.15 K) [m/s] | mass density ([1]; 308.15 K) [kg/m3] | speed of sound ([1]; 313.15 K) [m/s] | mass density ([1]; 313.15 K) [kg/m3] | speed of sound ([1]; 318.15 K) [m/s] | mass density ([1]; 318.15 K) [kg/m3] | speed of sound ([1]; 323.15 K) [m/s] | mass density ([1]; 323.15 K) [kg/m3] | speed of sound ([2]; 293.15 K) [m/s] | mass density ([2]; 293.15 K) [kg/m3] | speed of sound ([2]; 298.15 K) [m/s] | mass density ([2]; 298.15 K) [kg/m3] | speed of sound ([2]; 303.15 K) [m/s] | mass density ([2]; 303.15 K) [kg/m3] | further results |
| --- | --- | --- | --- | --- | --- | --- | --- | --- | --- | --- | --- | --- | --- | --- | --- | --- | --- | --- | --- | --- | --- |
| c1ccccc1 [benzene] | 1322.7 ± 1.4 | 878.95 ± 0.08 | 1299.3 ± 1.4 | 873.61 ± 0.08 | 1276 ± 1.4 | 868.25 ± 0.08 | 1252.8 ± 1.4 | 862.88 ± 0.09 | 1229.8 ± 1.3 | 857.48 ± 0.09 | 1207 ± 1.3 | 852.08 ± 0.09 | 1184.5 ± 1.3 | 846.65 ± 0.09 |  |  |  |  |  |  |  |
| c1ccccc1 [benzene] + NC1CCCCC1 |  |  |  |  |  |  |  |  |  |  |  |  |  |  | 1322.7 ± 1.4 | 878.95 ± 0.08 | 1299.3 ± 1.4 | 873.61 ± 0.08 | 1276 ± 1.4 | 868.25 ± 0.08 | speed of sound ([2]; 308.15 K): 1252.8 ± 1.4 m/s; mass density ([2]; 308.15 K): 862.88 ± 0.09 kg/m3; speed of sound ([2]; 313.15 K): 1229.8 ± 1.3 m/s; mass density ([2]; 313.15 K): 857.48 ± 0.09 kg/m3; speed of sound ([2]; 318.15 K): 1207 ± 1.3 m/s; mass density ([2]; 318.15 K): 852.08 ± 0.09 kg/m3; speed of sound ([2]; 323.15 K): 1184.5 ± 1.3 m/s; mass density ([2]; 323.15 K): 846.65 ± 0.09 kg/m3 |
| C1CCCCC1 [cyclohexane] | 1278.6 ± 1.4 | 778.55 ± 0.12 | 1253.9 ± 1.4 | 773.84 ± 0.12 | 1229.3 ± 1.3 | 769.11 ± 0.12 | 1205.1 ± 1.3 | 764.35 ± 0.12 | 1181 ± 1.3 | 759.56 ± 0.13 | 1157.3 ± 1.3 | 754.74 ± 0.13 | 1133.7 ± 1.3 | 749.89 ± 0.13 |  |  |  |  |  |  |  |
| C1CCCCC1 [cyclohexane] + NC1CCCCC1 |  |  |  |  |  |  |  |  |  |  |  |  |  |  | 1278.6 ± 1.4 | 778.55 ± 0.12 | 1253.9 ± 1.4 | 773.84 ± 0.12 | 1229.3 ± 1.3 | 769.11 ± 0.12 | speed of sound ([2]; 308.15 K): 1205.1 ± 1.3 m/s; mass density ([2]; 308.15 K): 764.35 ± 0.12 kg/m3; speed of sound ([2]; 313.15 K): 1181 ± 1.3 m/s; mass density ([2]; 313.15 K): 759.56 ± 0.13 kg/m3; speed of sound ([2]; 318.15 K): 1157.3 ± 1.3 m/s; mass density ([2]; 318.15 K): 754.74 ± 0.13 kg/m3; speed of sound ([2]; 323.15 K): 1133.7 ± 1.3 m/s; mass density ([2]; 323.15 K): 749.89 ± 0.13 kg/m3 |
| NC1CCCCC1 [cyclohexylamine] | 1430.5 ± 1.6 | 867.39 ± 0.12 | 1408.8 ± 1.6 | 862.85 ± 0.12 | 1387.3 ± 1.5 | 858.31 ± 0.12 | 1366 ± 1.5 | 853.76 ± 0.12 | 1344.5 ± 1.5 | 849.23 ± 0.13 | 1323.1 ± 1.5 | 844.68 ± 0.13 | 1301.8 ± 1.5 | 840.14 ± 0.13 |  |  |  |  |  |  |  |

Source: the NIST ThermoML archive (doi:10.1016/j.tca.2012.08.011)
